Counter-ions that a name gives are not always drawn.
Key:
[1] = system: SARS-CoV-2; assay: Antiviral efficacy against SARS-CoV-2 (strain BavPat1) in Vero E6 cells assessed by inhibition of viral RNA replication measured by RT-PCR after 2 days; format: functional, organism-based, Chlorocebus sabaeus; settings: Severe acute respiratory syndrome coronavirus 2, Vero C1008, 48 h
[2] = Cytotoxicity (CC50) determination in Vero E6 cells measured by fluorescence (OD590nm); format: toxicity, cell-based; settings: chlorocebus sabaeus, Vero E6 cells (Vero C1008)
[3] = Selectivity index for antiviral vs cytotoxic effect in Vero E6 cells (CC50/EC50); format: toxicity, cell-based, Vero C1008; settings: monkey, read-out: Selectivity index
[4] = system: SARS-CoV-2; assay: Inhibition of cell viability relative to arbidol control (inhibition index > 1 indicates higher activity) measured by fluorescence (OD590nm) in Vero E6 cells infected with SARS-CoV-2 (strain BavPat1) at MOI 0.002 after 72hrs; format: functional; settings: Chlorocebus sabaeus; Vero C1008

Molecule	EC50 [1] [µM]	CC50 [2] [µM]	selectivity ratio [3]	EC90 [1] [µM]	Inhibition index [4]
CC[C@H]1OC(=O)[C@H](C)[C@@H](O[C@H]2C[C@@](C)(OC)[C@@H](O)[C@H](C)O2)[C@H](C)[C@@H](O[C@@H]2O[C@H](C)C[C@H](N(C)C)[C@H]2O)[C@](C)(O)C[C@@H](C)CN(C)[C@H](C)[C@@H](O)[C@]1(C)O [AZITHROMYCIN]	2.12	> 40	> 19		
CC(C)CN(C[C@@H](O)[C@H](Cc1ccccc1)NC(=O)O[C@H]1CO[C@H]2OCC[C@H]21)S(=O)(=O)c1ccc(N)cc1	> 40				
C[C@@H]1CCO[C@H]2Cn3cc(C(=O)NCc4ccc(F)cc4F)c(=O)c(O)c3C(=O)N12 [DOLUTEGRAVIR]	22	> 40	> 1.8	42.8	
NEOMYCIN SULFATE					0.0953
CC(C)(C)NC[C@H](O)c1ccc(O)c(CO)c1 [LEVALBUTEROL HYDROCHLORIDE]	> 40				
CCCCC[C@H](O)/C=C/[C@H]1[C@H](O)CC(=O)[C@@H]1CCCCCCC(=O)O [ALPROSTADIL]	5.39	> 40	> 7.4	62.4	
COc1ncnc(NS(=O)(=O)c2ccc(N)cc2)c1OC [SULFADOXINE]	35.4	> 40	> 1.13	45.1	
OCCN1CCN(CCCN2c3ccccc3C=Cc3ccccc32)CC1 [OPIPRAMOL HYDROCHLORIDE]	5.05	> 40	> 7.9		
COc1ccc2[nH]c([S+]([O-])Cc3ncc(C)c(OC)c3C)nc2c1 (configuration not stated) [OMEPRAZOLE]	17.1	> 40			
COC(c1ccccc1)(c1ccccc1)C(Oc1nc(C)cc(C)n1)C(=O)O (configuration not stated)	> 40				
C=C[C@H]1CN2CC[C@H]1C[C@@H]2[C@@H](O)c1ccnc2ccc(OC)cc12	5.11	> 40	> 7.8	> 40	
CCN(CCO)CCCC(C)Nc1ccnc2cc(Cl)ccc12 (configuration not stated) [HYDROXYCHLOROQUINE SULFATE]	4.17	> 40	> 10		
CCOC(=O)c1c(CSc2ccccc2)n(C)c2cc(Br)c(O)c(CN(C)C)c12 [UMIFENOVIR]	10.7	> 40	> 3.7		
C=CCOc1ccccc1OCC(O)CNC(C)C (configuration not stated) [OXPRENOLOL HYDROCHLORIDE]	20.2	> 40	> 2	> 40	
COc1ccccc1OCC(O)CN1CCN(CC(=O)Nc2c(C)cccc2C)CC1 (configuration not stated) [RANOLAZINE]	> 40				
Clc1ccc(Cn2c(CN3CCCC3)nc3ccccc32)cc1	23.9	> 40	> 1.7	38.2	
CCCc1nc(C(C)(C)O)c(C(=O)OCc2oc(=O)oc2C)n1Cc1ccc(-c2ccccc2-c2nnn[nH]2)cc1 [OLMESARTAN MEDOXOMIL]	> 40				
Gramicidin					-0.249
CYANOCOBALAMIN					0.0637
Tyloxapol					0.101

Source: ChEMBL document CHEMBL4303097 (2020)
